Measured values taken from the supplement of paper PMC11208160.

assay: recombinant barcode read abundance after kanamycin selection (control-corrected) (log10(CPM+1)); higher = more efficient recombination; sequences stand for … in AGTGCAGAGAAAATCGGCCAGTTTTCTCTGCCTGCAGTCCGCATGCCGT…AGATTTATGCAGCGGACTGCCTTTCTCCCAAAGTGATAAACCGGACAGTATCATGGACCGGTTTTCCCGGTAATCCGTATTTGCAAGGTTGGTTTCACT; site = the 11-nt target
Method in brief: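 Pooled E. coli screen pairing targets with IS621 bridge RNA target-binding loops. Each oligo (promoter, target, barcode, J23119-driven first 104 bridge RNA bases) was Gibson-cloned into a vector with the remaining 73 bp and T7-inducible recombinase, then co-electroporated with a donor plasmid. Two replicates each were plated on chloramphenicol/ampicillin LB agar (control) or chloramphenicol/ampicillin/kanamycin with 0.1 mM IPTG. Recombination efficiency is recombinant-junction barcode counts as CPM, averaged, control-corrected, reported as log10(CPM+1).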
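Note: IS621 recombinase and bridge RNA in Escherichia coli cells.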

| Sequence | recombinant barcode read abundance (log10) |
| --- | --- |
| ATATTTCCTTGGGTTCTAACCTGTTGCCT (site AAATTTCCTAG) | 0.0146 |
| GGGTCACCTTGGGTTCTAACCTGTTGCGG (site CCAAAGACTAA) | 0.564 |
| ACTAGGACTTGGGTTCTAACCTGTTGCGG (site ACTAGGACTTC) | 0.302 |
| CTAAGGGCTTGGGTTCTAACCTGTTGCCA (site CTAAGTGCTTG) | 0.233 |
| CAAGTGACTTGGGTTCTAACCTGTTGCCT (site CAAGTGACTAG) | 1.68 |
| GTAAATGCTTGGGTTCTAACCTGTTGCCT (site GTAAATGCTAG) | 1.36 |
| CGGGCCTCTTGGGTTCTAACCTGTTGCTC (site CGGGCCTCTCA) | 0.0404 |
| ACGTGAACTTGGGTTCTAACCTGTTGCCT (site ACGTGAACTAG) | 0.416 |
| TTCCGCTCTTGGGTTCTAACCTGTTGCCT (site TTCCGCTCTAG) | 1.26 |
| GTCTATACTTGGGTTCTAACCTGTTGCCT (site GTCTATACTAG) | 0.987 |
| TCAGAGCCTTGGGTTCTAACCTGTTGCTG (site TCATAGCCTCA) | 0.0059 |
| TAGACATCTTGGGTTCTAACCTGTTGCAT (site TAGACATCTAT) | 0.353 |
| AGGGGCTCTTGGGTTCTAACCTGTTGCTG (site ACGGGCTCTAA) | 0.0932 |
| AGGTTAGCTTGGGTTCTAACCTGTTGCTA (site GCAAGTACTCT) | 0.538 |
| ATATTTCCTTGGGTTCTAACCTGTTGCCT (site ATATTTCCTAG) | 0.785 |
| CTTTAATCTTGGGTTCTAACCTGTTGCCT (site CTTGAATCTAG) | 0.0679 |
| TACTGGGCTTGGGTTCTAACCTGTTGCGG (site TACTGGGCTCA) | 0.316 |
| CATCCTACTTGGGTTCTAACCTGTTGCGG (site CATCCTACTCC) | 1.98 |
| AAGAAGCCTTGGGTTCTAACCTGTTGCCT (site GAGAAGCCTAG) | 0.14 |
| TACATCCCTTGGGTTCTAACCTGTTGCCG (site TACATCCCTTG) | 0.0738 |
| CGGAACACTTGGGTTCTAACCTGTTGCGG (site CGGAACACTCC) | 2.84 |
| TAGAGAGCTTGGGTTCTAACCTGTTGCGG (site TATAGAGCTCC) | 0.356 |

| Sequence | recombinant barcode read abundance (log10) |
| --- | --- |
| TGACGTCCTTGGGTTCTAACCTGTTGCGT (site TGACGTCCTAG) | 0.0763 |
| GTGAGGTCTTGGGTTCTAACCTGTTGCAT (site GTGAGGTCTAG) | 0.375 |
| AACTTTCCTTGGGTTCTAACCTGTTGCAT (site AACTCTCCTAT) | 0.465 |
| AGTGAGCCTTGGGTTCTAACCTGTTGCCT (site AGTCAGCCTAG) | 0.0584 |
| CTAATAGCTTGGGTTCTAACCTGTTGCTA (site CTAATATCTTA) | 0.438 |
| TGGAGTCCTTGGGTTCTAACCTGTTGCCT (site TGGAGTCCTAG) | 1.11 |
| GGCGATCCTTGGGTTCTAACCTGTTGCCT (site GTCGATCCTAG) | 0.059 |
| GCCCGTGCTTGGGTTCTAACCTGTTGCCT (site GCGCGTGCTAG) | 0.177 |
| AAGCCAACTTGGGTTCTAACCTGTTGCCT (site AAGCGAACTAG) | 0.181 |
| ACCGACCCTTGGGTTCTAACCTGTTGCCG (site ACCGTCCCTCG) | 0.105 |
| TGTCCACCTTGGGTTCTAACCTGTTGCCT (site TGTCCACCTAG) | 0.623 |
| AGCCTGACTTGGGTTCTAACCTGTTGCCT (site AGCCTGACTAG) | 0.741 |
| GGTCCTCCTTGGGTTCTAACCTGTTGCGA (site GGTCCTCCTTC) | 0.847 |
| TGTGAGTCTTGGGTTCTAACCTGTTGCTT (site TGTGAGTCTAG) | 0.193 |
| GACCAGCCTTGGGTTCTAACCTGTTGCTT (site GACCAGCCTAT) | 0.746 |
| CTCCGACCTTGGGTTCTAACCTGTTGCTT (site CTCCGTCCTAA) | 0.103 |
| AACCCACCTTGGGTTCTAACCTGTTGCCT (site AACCCACCTAG) | 1.97 |
| CTAGCGTCTTGGGTTCTAACCTGTTGCTT (site CTAGCGTCTAA) | 0.776 |
| ATAACTACTTGGGTTCTAACCTGTTGCCA (site ATAACTACTTG) | 0.462 |
| CCGCAGCCTTGGGTTCTAACCTGTTGCCT (site CCGAAGCCTAG) | 0.0264 |
| ATTTGAGCTTGGGTTCTAACCTGTTGCTG (site GTATGAGCTCA) | 0.0966 |
